According to ChEMBL document CHEMBL1949662, “JBIR-94 and JBIR-125, antioxidative phenolic compounds from Streptomyces sp. R56-07” (J Nat Prod, 2012):

What follows are molecules tested on Radical scavenging activity (assay: Antioxidant activity assessed as DPPH free radical scavenging activity after 30 mins).
Format: functional

| IC50 | Compound |
| --- | --- |
| 35.1 µM | CC(=O)NCCCCN(CCCNC(=O)CCc1ccc(O)cc1)C(=O)CCc1ccc(O)cc1 |
| 11.4 µM | COc1cc(CCC(=O)NCCCCNC(=O)CCc2ccc(O)c(OC)c2)ccc1O |
| 9 µM | Cc1c(C)c2c(c(C)c1O)CC[C@@](C)(CCC[C@H](C)CCC[C@H](C)CCCC(C)C)O2 [ALPHA-TOCOPHEROL] |
